According to US20260015339A1, “CALIX[4]ARENES WITH HIGH ANTICANCER ACTIVITY” (UNIVERSITE GRENOBLE ALPES, priority 2023, published 2026):
pIC50: −log10 of the molar value.

Tests used:
[1] = Cu^+ transport into liposomes with encapsulated BCS; settings: POPC/cholesterol 7:3 LUVs, calix[4]arene to lipid 1:1000, 50 μM copper gradient, F/F0 after 600 s
Procedure: The ability of the examples of calix[4]arenes of the invention and the comparative examples to be delivered into a lipidic bilayer membrane of a liposome from a solution and their capacity to then act as a transporter of Cu^+ was evaluated using bathocuproine disulphonate (hereafter abbreviated “BCS”) encapsulated in large unilamellar vesicles (LUVs, also referred to as liposomes) composed of 1-palmitoyl-2-oleoyl-sn-glycero-3-phosphocholine and cholesterol in a 7:3 ratio.
BCS is a fluorescent water soluble phenantroline derivative that can be used as fluorescent dye for the sensing of Cu^+ through the formation of a non-fluorescent 2:1 complex.
Stock solution of lipids were prepared using deacidified CHCl3 and stored in a freezer. CHCl3 was deacidified by passing through activated basic alumina. The lipids used to prepare the liposomes were 2-oleoyl-1-palmitoyl-sn-glycero-3-phosphocholine (POPC), (purity ≥99%) and cholesterol (purity of 95%). 50 mM sodium phosphate buffer were prepared with Millipore water at pH 7 (±0.1) by mixing the solution of the mono- and the di-protonated phosphate salts. The solution of the dye (BCS) was prepared at 0.5 mM concentration in phosphate buffer.
The lipids solutions were mixed in different ratios in a 5 mL round bottom flask. The POPC/cholesterol molar ratio was 7:3 in all experiments. The total amount of lipids per batch varied depending on the amount of liposomes solution required for the experiment. After mixing the lipid solutions in a round bottom flask, the chloroform was evaporated under a gentle air flow and the resulting lipid film was dried at high vacuum for at least an hour. 500 μL of the BCS solution in phosphate buffer and a magnetic stir bar were added to the flask. The flask was then sonicated for 30 seconds and placed under magnetic agitation for at least an hour. The solution was frozen with liquid nitrogen and heated back to room temperature with warm water ten times to form large unilamellar vesicles (LUVs). The liposome solution was extruded 29 times, using an extrusion kit equipped with a membrane with 200 nm pores. Subsequently, the solution was eluted with the buffer solution used for the experiment through a size exclusion column (Sephadex G-25) to remove the external BCS and then diluted with phosphate buffer to obtain a concentration of 0.4 mM in lipids.
Solutions of the calix[4]arenes were prepared at a concentration of 0.24 mM in DMSO and 5 μL of the solution was added 2 minutes before each transport measurement.
Alternatively, calix[4]arenes were pre-incorporated by combining the calix[4]arene (dissolved in chloroform) with the lipids prior to the evaporation of the chloroform to obtain a lipid film. The concentrations and volumes were chosen to obtain a calix[4]arene to lipid of 1:1000.
Fluorescence measurements were performed with a Horiba FluoroMax 4 spectrometer using a 4-faced quartz cuvette (10 mm×10 mm). For the Cu^+ transport assay, the excitation was set at 278 nm and emission was recorded at 393 nm. These values correspond to the excitation and emission maxima of BCS encapsulated inside LUVs.
The Cu^+ solutions added to the liposomes were obtained by dissolving Cu(MeCN)4BF4 in MeCN at 15.25 mM concentration. The copper solution was then diluted by a factor 5 in a phosphate buffer during the first 30 seconds of the experiment to reach a copper concentration of 3.05 mM. 50 μL of the diluted copper solution was added to 3 mL of liposomes, resulting in a copper gradient of 50 μM. The fluorescence level was monitored for 600 seconds after the addition of the copper solution.
For each run the initial plateau and the initial vertical drop (due to the binding of the exterior dye with Cu^+ and the dilution, 1-4 seconds after the addition) were removed. Then the signal was normalised by dividing the fluorescence values (F) by the value at t=0 second (F0). […]

[2] = test system: PC9 human lung cancer cells; test: MTS cytotoxicity assay on PC9; type: cell-based; settings: PC9, 72 hours of treatment
Procedure: PC9 human lung cancer cells were seeded in 96-well plates together with the calix[4]arene of the formula (2). Cells were grown in RPMI-1640 supplemented with GlutaMAX™ (Gibco™) and fetal calf serum (FCS, 10%) and treated with a broad range of concentrations of the calix[4]arene of the formula (2). After 72 hours of treatment, the cytotoxicity was measured by means of the IC50 value, using the kit “CellTiter 96R AQuous One Solution Cell Proliferation Assay (MTS)” from Promega™. Following 30 minutes of incubation with the MTS reagent, the endpoint measurements were done in triplicate at 485 nm, using a fluorescence plate reader.
PC9 human lung cancer cells were seeded in 96-well plates together with the 2nd comparative example of the formula (XI). Cells were grown in RPMI-1640 supplemented with GlutaMAX™ (Gibco™) and fetal calf serum (FCS, 10%) and treated with a broad range of concentrations of the compound of the 2nd comparative example of the formula (XI). After 72 hours of treatment, the cytotoxicity was measured by means of the IC50 value, using the kit “CellTiter 96R AQuous One Solution Cell Proliferation Assay (MTS)” from Promega™. Following 30 minutes of incubation with the MTS reagent, the endpoint measurements were done in triplicate at 485 nm, using a fluorescence plate reader. […]

[3] = test system: Non-malignant MRC5-SVII cells; test: MTS cytotoxicity assay on MRC5-SVII; type: cell-based; settings: 72 hours of treatment
Procedure: Cells were grown in Minimal Essential Medium—Non Essential Amino Acids (MEM NEAA) culture medium from Gibco™, supplemented with sodium pyruvate ([…]), and fetal calf serum (FCS, 10%) and treated with a broad range of concentrations of the 2nd comparative example of the formula (XI).

[4] = test system: H322 lung carcinoma cells; test: MTS cytotoxicity assay on H322; type: cell-based; settings: NCI-H322; H322, 72 hours of treatment
Procedure: H322 lung carcinoma cells were seeded in 96-well plates together with the calix[4]arene of the formula (2). Cells were grown in RPMI-1640 supplemented with GlutaMAX™ (Gibco™) and fetal calf serum (FCS, 10%) and treated with a broad range of concentrations of the calix[4]arene of the formula (2). After 72 hours of treatment, the cytotoxicity was measured by means of the IC50 value, using the kit “CellTiter 96R AQuous One Solution Cell Proliferation Assay (MTS)” from Promega™. Following 30 minutes of incubation with the MTS reagent, the endpoint measurements were done in triplicate at 485 nm, using a fluorescence plate reader.
H322 lung carcinoma cells were seeded in 96-well plates together with the compound of the 2nd comparative example of the formula (XI). Cells were grown in RPMI-1640 supplemented with GlutaMAX™ (Gibco™) and fetal calf serum (FCS, 10%) and treated with a broad range of concentrations of the 2nd comparative example of the formula (XI). After 72 hours of treatment, the cytotoxicity was measured by means of the IC50 value, using the kit “CellTiter 96R AQuous One Solution Cell Proliferation Assay (MTS)” from Promega™. Following 30 minutes of incubation with the MTS reagent, the endpoint measurements were done in triplicate at 485 nm, using a fluorescence plate reader.
H322 lung carcinoma cells were seeded in 96-well plates together with the 1st comparative example of the formula (X). Cells were grown in RPMI-1640 supplemented with GlutaMAX™ (Gibco™) and fetal calf serum (FCS, 10%) and treated with a broad range of concentrations of the compound of the formula (X). After 72 hours of treatment, the cytotoxicity was measured by means of the IC50 value, using the kit “CellTiter 96R AQuous One Solution Cell Proliferation Assay (MTS)” from Promega™. Following 30 minutes of incubation with the MTS reagent, the endpoint measurements were done in triplicate at 485 nm, using a fluorescence plate reader.
H322 lung carcinoma cells were seeded in 96-well plates together with the tested calix[4]arenes. Cells were grown in RPMI-1640 supplemented with GlutaMAX™ (Gibco™) and fetal calf serum (FCS, 10%) and treated with a broad range of concentrations of the tested calix[4]arenes. After 72 hours of treatment, the cytotoxicity was measured by means of the IC50 value, using the kit “CellTiter 96R AQuous One Solution Cell Proliferation Assay (MTS)” from Promega™. Following 30 minutes of incubation with the MTS reagent, the endpoint measurements were done in triplicate at 485 nm, using a fluorescence plate reader.

[5] = Cu^+ binding by 1H NMR titration; settings: 1H NMR titration with Cu(MeCN)4BF4, CD3CN/CDCl3 4/1, 298 K
Procedure: Binding abilities and complexation constants of the examples of calix[4]arenes of the present invention and the comparative examples with Cu^+ were evaluated by ^1H NMR titrations at 298 K using copper(I)tetrakis(acetronitrile)tetrafluoroborate.
For example, for each separate calix[4]arene a stock solution of the tested calix[4]arene was prepared in a CD3CN/CDCl3, 4/1 mixture. Using this stock solution, a Cu(MeCN)4BF4 solution was prepared and added by steps of 0.25 equivalent of copper(I) up until 1 equivalent and then by steps of 0.5 equivalent until a total of at least 2 equivalents. ^1H NMR spectra were recorded at a 400 MHz spectrometer at 298 K for the stock solutions of the calix[4]arenes and after each addition of Cu(MeCN)4BF4.
Calix[4]arenes for which a gradual change of the chemical shifts of the ^1H NMR signals (>0.1 ppm for at least one of the signals) was observed upon addition of up to 4-5 equivalents of Cu(MeCN)4BF4 were considered to show weak binding.

[6] = test system: Hepatocellular carcinoma (HepG2/C3A) cells; test: MTT cytotoxicity assay (DL50); type: cell-based; settings: 24 hours of incubation
Procedure: Cytotoxicity was evaluated using the MTT assay. 1.10^4 cells per well were seeded in a flat-bottom 96-well plate and were incubated for 48 hours at 37° C. with 5% CO2 before addition of the different calix[4]arenes at concentrations up to 200 μM. In all experiments, each condition was performed in triplicate in the plate. Besides, each experiment was done three times independently. After 24 hours of incubation in presence of the compounds, medium was discarded, cells were rinsed with PBS and 100 μL of medium containing 0.5 mg/mL of MTT was added to each well. After 30 minutes of incubation at 37° C., MTT solution was discarded and formazan crystals formed were dissolved in 150 μL of 4 mM HCl, 0.1% NP40 in isopropanol. The absorbance in the wells were read in a microplate reader (Tecan microplate reader-550) at 570 nm.

[7] = test system: A549 human lung cancer cells; test: MTS cytotoxicity assay on A549; type: cell-based; settings: A549, 72 hours of treatment
Procedure: A549 human lung cancer cells were seeded in 96-well plates together with the calix[4]arene of the formula (2). Cells were grown in RPMI-1640 supplemented with GlutaMAX™ (Gibco™) and fetal calf serum (FCS, 10%) and treated with a broad range of concentrations of the calix[4]arene of the formula (2). After 72 hours of treatment, the cytotoxicity was measured by means of the IC50 value, using the kit “CellTiter 96R AQuous One Solution Cell Proliferation Assay (MTS)” from Promega™. Following 30 minutes of incubation with the MTS reagent, the endpoint measurements were done in triplicate at 485 nm, using a fluorescence plate reader.
A549 human lung cancer cells were seeded in 96-well plates together with the compound of the 2nd comparative example of the formula (XI). Cells were grown in RPMI-1640 supplemented with GlutaMAX™ (Gibco™) and fetal calf serum (FCS, 10%) and treated with a broad range of concentrations of the 2nd comparative example of the formula (XI). After 72 hours of treatment, the cytotoxicity was measured by means of the IC50 value, using the kit “CellTiter 96R AQuous One Solution Cell Proliferation Assay (MTS)” from Promega™. Following 30 minutes of incubation with the MTS reagent, the endpoint measurements were done in triplicate at 485 nm, using a fluorescence plate reader. […]

Compound: CCCOc1c2cccc1Cc1cccc(c1OCCC)Cc1cccc(c1OCCC)Cc1cccc(c1OCCC)C2 [(XI)]
- Cu^+ transport [1]: No (means that no significant decrease of the fluorescence of encapsulated BCS was observed upon addition of Cu^+ to the liposomes (F/F0 >0.65 after 600 s) when the calix[4]arene was either delivered from a solution in DMSO to liposomes or pre-incorporated into the liposomes)
- pIC50 [2]: < 4.30
- pIC50 [3]: < 4.70
- pIC50 [4]: < 4.30
- Cu^+ binding [5]: Not significant (means that no significant changes of chemical shifts (<0.1 ppm) were observed upon addition of 4-5 equivalents of Cu(MeCN)4BF4)
- pIC50 [6]: 3.74
- pIC50 [7]: < 4.30
